Consider seven molecules from patent US6348477B1, “Anti-herpesvirus compounds and methods for identifying, making and using same” (Boehringer Ingelheim(Canada) Ltd., priority 1995, dated 2002).

Marks after values point to notes of the source that are not given here. A value given as a limit tells only on which side of the number the result lay.

The target of one series is T1, HSV-1 helicase-primase (Human herpesvirus 1, UniProt P10189+P10236).
T1 construct: made in house; host or cells: Sf21 insect cells triply infected with recombinant baculoviruses
T1 sequence (P10189 whole entry): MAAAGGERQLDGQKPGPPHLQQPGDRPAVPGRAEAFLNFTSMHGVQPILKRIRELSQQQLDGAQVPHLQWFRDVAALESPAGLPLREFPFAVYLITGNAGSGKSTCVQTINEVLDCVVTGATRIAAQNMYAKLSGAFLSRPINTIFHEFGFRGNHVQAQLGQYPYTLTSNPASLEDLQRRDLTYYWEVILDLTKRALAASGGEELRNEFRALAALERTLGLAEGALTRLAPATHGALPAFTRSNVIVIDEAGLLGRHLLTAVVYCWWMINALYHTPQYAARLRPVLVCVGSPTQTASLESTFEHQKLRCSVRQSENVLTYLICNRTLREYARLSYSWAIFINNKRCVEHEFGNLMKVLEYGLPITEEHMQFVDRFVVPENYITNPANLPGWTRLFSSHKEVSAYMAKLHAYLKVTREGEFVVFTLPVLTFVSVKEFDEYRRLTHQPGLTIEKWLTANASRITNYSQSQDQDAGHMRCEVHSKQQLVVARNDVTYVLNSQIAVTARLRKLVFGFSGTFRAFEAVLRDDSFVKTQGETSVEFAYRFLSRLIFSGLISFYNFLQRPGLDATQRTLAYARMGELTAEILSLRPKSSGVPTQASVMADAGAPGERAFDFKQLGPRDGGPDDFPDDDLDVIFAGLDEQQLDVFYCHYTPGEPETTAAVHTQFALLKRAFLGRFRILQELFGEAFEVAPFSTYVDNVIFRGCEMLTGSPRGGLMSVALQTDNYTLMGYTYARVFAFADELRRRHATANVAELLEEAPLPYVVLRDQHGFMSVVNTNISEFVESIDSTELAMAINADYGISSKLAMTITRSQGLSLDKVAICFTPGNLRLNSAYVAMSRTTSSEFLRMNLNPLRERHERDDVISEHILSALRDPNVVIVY
T1 sequence (P10192 whole entry, further chain): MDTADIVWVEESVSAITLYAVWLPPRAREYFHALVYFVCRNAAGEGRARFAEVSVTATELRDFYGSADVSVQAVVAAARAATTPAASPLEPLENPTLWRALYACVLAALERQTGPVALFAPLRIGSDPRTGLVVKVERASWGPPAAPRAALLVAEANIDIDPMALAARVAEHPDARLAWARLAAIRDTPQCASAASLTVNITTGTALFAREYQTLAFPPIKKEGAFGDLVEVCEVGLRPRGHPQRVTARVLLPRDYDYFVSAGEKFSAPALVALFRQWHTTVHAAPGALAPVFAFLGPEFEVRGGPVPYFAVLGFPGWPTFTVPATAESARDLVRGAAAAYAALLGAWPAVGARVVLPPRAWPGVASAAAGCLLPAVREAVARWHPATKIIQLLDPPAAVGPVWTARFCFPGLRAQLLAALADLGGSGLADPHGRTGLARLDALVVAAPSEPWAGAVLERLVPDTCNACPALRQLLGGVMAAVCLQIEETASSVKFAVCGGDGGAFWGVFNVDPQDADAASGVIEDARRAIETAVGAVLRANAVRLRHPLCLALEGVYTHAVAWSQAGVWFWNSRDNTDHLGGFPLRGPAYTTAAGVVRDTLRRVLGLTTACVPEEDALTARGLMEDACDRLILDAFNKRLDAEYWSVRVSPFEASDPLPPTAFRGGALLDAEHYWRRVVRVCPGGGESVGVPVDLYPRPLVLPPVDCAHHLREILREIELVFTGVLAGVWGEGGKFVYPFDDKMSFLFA
T1 sequence (P10236 whole entry): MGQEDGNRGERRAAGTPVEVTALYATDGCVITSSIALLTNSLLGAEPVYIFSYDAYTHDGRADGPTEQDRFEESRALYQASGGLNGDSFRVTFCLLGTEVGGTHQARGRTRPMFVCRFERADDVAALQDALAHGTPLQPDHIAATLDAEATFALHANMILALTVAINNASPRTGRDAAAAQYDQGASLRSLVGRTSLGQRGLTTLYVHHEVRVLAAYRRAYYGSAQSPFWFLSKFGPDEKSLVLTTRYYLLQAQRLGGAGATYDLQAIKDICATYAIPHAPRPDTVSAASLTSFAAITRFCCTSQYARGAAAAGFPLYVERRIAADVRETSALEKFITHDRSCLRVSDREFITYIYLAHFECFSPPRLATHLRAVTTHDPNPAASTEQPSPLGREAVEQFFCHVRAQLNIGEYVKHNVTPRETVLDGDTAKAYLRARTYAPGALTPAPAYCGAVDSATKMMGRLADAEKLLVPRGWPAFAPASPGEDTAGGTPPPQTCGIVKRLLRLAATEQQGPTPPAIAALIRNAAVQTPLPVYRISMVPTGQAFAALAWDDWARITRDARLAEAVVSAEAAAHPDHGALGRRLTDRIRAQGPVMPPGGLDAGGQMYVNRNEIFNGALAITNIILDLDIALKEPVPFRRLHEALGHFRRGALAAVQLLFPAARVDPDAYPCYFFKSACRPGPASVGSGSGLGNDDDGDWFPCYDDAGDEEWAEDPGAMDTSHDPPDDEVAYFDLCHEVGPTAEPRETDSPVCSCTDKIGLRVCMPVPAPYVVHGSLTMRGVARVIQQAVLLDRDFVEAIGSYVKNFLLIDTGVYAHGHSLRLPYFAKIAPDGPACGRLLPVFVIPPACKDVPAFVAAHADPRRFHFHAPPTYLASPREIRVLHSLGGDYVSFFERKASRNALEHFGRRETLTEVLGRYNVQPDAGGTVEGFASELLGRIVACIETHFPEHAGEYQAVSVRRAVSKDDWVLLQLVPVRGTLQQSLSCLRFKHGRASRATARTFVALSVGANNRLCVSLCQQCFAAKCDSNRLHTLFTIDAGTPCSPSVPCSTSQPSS
Briefly: HSV-1 DNA-dependent ATPase assay (inhibition of HSV-1 helicase-primase). The series is classed as biochemical. As to conditions: Group 1 Table 1. An excerpt: A) HSV-1 DNA-Dependent ATP Assay (an in Vitro Assay Based on the Inhibition of HSV-1 Helicase-primase).
a) Preparation of enzyme: HSV-1 helicase-primase holoenzyme was produced in triply infected Sf21 cells using recombinant baculoviruses expressing the UL5, UL8 and UL52 helicase-primase subunits, as described by S. Dracheva et al., J. Biol. Chem. 1995, 270, 14148. The crude enzyme was purified by ammonium sulfate precipitation, Source 15Q® chromatography and Sephacryl® S-300 HR gel filtration (both purification systems can be obtained from Pharmacia Biotech Inc., Montreal, Quebec, Canada), see S. Dracheva et al., supra.
b) Assay: The DNA-dependent ATPase assay, described by J. J. Crute et al., Nucleic Acids Res. 1988, 16, 6585, was modified and used to evaluate the capability of the compounds of Group 1-formula 1 to inhibit HSV-1 helicase-primase activity. The reaction mixtures (80 μL each) contained 40 mM 4-(2-hydroxyethyl)-1-piperazineethanesulfonic acid (HEPES, pH 7.5), 10% (v/v) glycerol, 5.5 mM MgCl2, 1 mM DL-dithiothreitol (DTT), 50 μg/mL acetylated bovine serum albumin, 3.3% (v/v) DMSO, 4 mM ATP, 25 μM single-stranded M13 DNA hybridized to double-tailed 68-mer oligonucleotide and 3 μg/mL HSV-1 helicase-primase. After incubation for 20 min at 34°, formation of inorganic phosphate from hydrolysis of ATP was monitored spectrophotometrically at 650 nm using acidic ammonium molybdate/malachite green reagent, P. A. Lanzetta et al., Anal. Biochem. 1979, 100, 95. DNA-dependent ATPase activity was calculated from the net absorbance change in the presence and absence of inhibition.

Series [1] concerns HCMV (strain AD169). Briefly: Inhibition of HCMV replication, ELISA assay (Hs-68 cells, p28). The format is cell-based, human cytomegalovirus. As to conditions: Group 1 Table 1, read-out: ELISA CMV EC50. The protocol: (§1) C) Inhibition of Human Cytomegalovirus (HCMV) replication
(§2) The effect of compounds on the replication of HCMV has been measured by using an ELISA-based assay (ELISA) and a plaque reduction assay (PRA).
(§3) Hs-68 cells (ATCC # CRL 1635) were seeded in 96 well microtiter plates at 10,000 cells/well in 100 μL of DMEM medium (Gibco Canada Inc.) supplemented with 10% fetal bovine serum (FBS, Gibco Canada Inc.). The plates were incubated for 3 days at 37° to allow the cells to reach 80-90% confluency prior to the assay.
The medium was removed from wells by aspiration. The cells then were infected at a multiplicity of infection (MOI) of 0.01 PFU/cell with 50 μL of HCMV (strain AD169, ATCC VR-538) in DMEM medium supplemented with 5% heat inactivated FBS (assay medium). The virus was allowed to adsorb to cells for 2 h at 37°. Following viral adsorption, the medium was removed from the wells by aspiration. The cells were washed twice with 200 μL of assay medium to remove unabsorbed virus. The cells were then incubated with or without 100 μL of appropriate concentrations of test reagent in assay medium. After 8 days of incubation at 37°, the extent of viral replication was determined by an ELISA assay which detects the late structural protein p28 of HCMV.
Eight days after infection, the medium was aspirated from the wells. Non-specific binding sites were blocked by adding 200 μL of phosphate buffered saline containing 1% (w/v) bovine serum albumin (blocking buffer) to each well and incubating the plates for 30 min at room temperature. After removal of the blocking buffer by aspiration, the cells were fixed with 100 μL of cold ethanol-acetone solution (95:5) per well. The plates were placed at −20° for 30 min. The plates were washed 4 times with phosphate buffered saline containing 0.05% (v/v) polyoxyethylene sorbitan monolaurate (Tween 20®). Thereafter, 100 μL of mAb UL99 (Advanced Biotechnologies Inc., #13-130-100) recognizing HCMV protein p28 was added to each wells and plates were incubated for 2 h at room temperature. The plates were washed four times with 200 μL of the above-noted phosphate buffered saline/Tween-20® solution. The cells were then incubated with 100 μL of sheep anti-mouse IgGγ horseradish peroxidase conjugated for 2 h at room temperature. The plates were then washed four times with 200 μL of above-noted phosphate buffered saline/Tween-20®solution. Thereafter, 100 μL of ortho phenylenediamine dihydrochloride (OPD, Gibco Canada Inc.) solution was added to each well and the plates were agitated on a microplate shaker for 30 min in the dark. Color development was monitored at 450 nm using a microplate spectrophotometer.
The SAS program was used to calculate the % inhibition of viral replication and to generate EC50 values.
The EC50 values obtained according to this assay method for certain thiazolylphenyl derivatives of this invention are listed in the following tables under the heading ELISA CMV.
(An ELISA detects its analyte on a solid surface through an enzyme-linked reagent.)

For series [2], the system named is HCMV (strain AD169). Briefly: Inhibition of HCMV replication, plaque reduction assay (PRA, Hs-68 cells). The series is classed as cell-based, human cytomegalovirus. The following applies: Group 1 Table 1, read-out: PRA CMV EC50. The protocol:
as §1, §2
(§4) Hs-68 cells ( ATCC # CRL 1635) were seeded in 12-well plates at 83,000 cells/well in 1 mL of DMEM medium (Gibco Canada Inc.) supplemented with 10% fetal bovine serum (FBS, Gibco Canada Inc.). The plates were incubated for 3 days at 37° to allow the cells to reach 80-90% confluency prior to the assay.
The medium was removed from the cells by aspiration. The cells were then infected with approximately 50 PFU of HCMV (strain AD169, ATCC VR-538) in DMEM medium supplemented with 5% inactivated FBS (assay medium). The virus was allowed to adsorb to cells for 2 h at 37°. Following viral adsorption, the medium was removed from the wells by aspiration. The cells were then incubated with or without 1 mL of appropriate concentrations of test reagent in assay medium. After 4 days of incubation at 37°, the medium was exchanged with fresh medium containing test compound and 4 days later the cells were fixed with 1% aqueous formaldehyde and stained with a 2% crystal violet solution in 20% ethanol in water. Microscopic plaques were counted using a stereomicroscope. Drug effects were calculated as a percent reduction in the number of plaques in the presence of each drug concentration compared to the number observed in the absence of drug. Ganciclovir was used as a positive control in all experiments.
The EC50 values obtained according to this assay for certain thiazolyl derivatives of this invention are listed in the following tables under the heading PRA CMV.

The next series has as its system Hs-68 cells. Briefly: Cytotoxicity noted in the CMV assays (table footnote). As to conditions: asterisk in PRA CMV, Group 1 Table 1. The series is classed as cell-based. The protocol:
as §3, §4

Series [3] concerns HSV-1 acyclovir-resistant mutant strain PAA^r5. In words: Acyclovir-resistant HSV-1 PAAr5 cutaneous infection in immunodeficient nu/nu mice, oral. The series is classed as in vivo. The following applies: 100 mg/kg/day oral, tid for 10 days (FIG. 1). How it is done:
(§5) Animals were cutaneously inoculated with 10^7 PFU of HSV-1 acyclovir resistant mutant viruses. The resulting cutaneous lesions were scored according to a subjective scoring system. The compound of Group 1 (Entry No. 29 in table 1) was administered orally (gavage) in an acidified vehicle (0.033 N aqueous HCl, tid for 10 days). Animals were similarly treated with acyclovir in 0.033 N aqueous HCl or only with the vehicle (0.033 N aqueous HCl). […] The dose-dependent effect of treatment with Entry No. 29 at 25 mg/kg/day (-♦-), 50 mg/kg/day (-▴-), 75 mg/kg/day (-□-), 100 mg/kg/day (-●-) or 125 mg/kg/day (-▪-), compared to treatment with vehicle alone (-∘-), is shown in FIG. 2. The ED50 of Entry No. 29 was about 60 mg/kg/day. Similar experiments were done using the HSV-1 acyclovir-resistant mutant strain dlsptk (FIGS. 3 and 4). […] The dose-dependent effect of treatment with Entry No. 29 at 25 mg/kg/day (-♦-), 50 mg/kg/day (▴-), 75 mg/kg/day (-□-), 100 mg/kg/day (-●-) or 125 mg/kg/day (-▪-), compared to treatment with vehicle alone (-∘-), is shown in FIG. 4. The acyclovir-resistant HSV-1 strains, PAA^r5 and dlsptk, have been described by P. A. Furman et al., J. Virol., 1981, 40, 936 and by D. M. Coen et al., Proc. Natl. Acad. Sci., 1989, 86, 4736, respectively.

The subject of series [4] is HSV-1 acyclovir-resistant mutant strain dlsptk. In words: Acyclovir-resistant HSV-1 dlsptk cutaneous infection in immunodeficient nu/nu mice, oral. The series is classed as in vivo. As to conditions: 100 mg/kg/day oral, tid for 10 days (FIG. 3). How it is done:
as §5

The subject of the next series is HSV-1 strain F or KOS. In words: Inhibition of herpes simplex virus (HSV-1) replication in cell culture (BHK-21 cells, glycoprotein C ELISA). The following applies: Group 1 Table 1. The series is classed as cell-based. How it is done:
B) Inhibition of Herpes Simplex Virus (HSV-1) Replication in Cell Culture
Assay: BHK-21 cells clone 13 (ATCC CCL10) were incubated for two days in 850 cm^2 roller bottles (2×10^7 cells/bottle) with α-MEM medium (Gibco Canada Inc., Burlington, Ontario, Canada) supplemented with 8% (v/v) fetal bovine serum (FBS, Gibco Canada, Inc.). The cells were trypsinized and then 3,000 cells in 100 μL of fresh medium were transferred into each well of a 96-well microtiter plate. The cells were incubated at 37° for a period of 3 days to reach a density of 50,000 cells per well. The cells were washed twice with 100 μL of α-MEM supplemented with 2% heat inactivated FBS and incubated for 1-2 hours in 100 μL of the same medium.
Thereafter, the cells were infected with HSV-1 strain F or KOS (multiplicity of infection=0.05 PFU/cell) in 50 μL of α-MEM supplemented with 2% heat inactivated FBS. Following one hour of virus absorption at 37°, the medium was removed and the cells were washed with α-MEM supplemented with 2% heat inactivated FBS (2×100 μL). The cells were incubated with or without 100 μL of the appropriate concentration of test reagent in α-MEM medium supplemented with 2% heat inactivated FBS. After 24 hours of incubation at 37°, the extent of viral replication was determined by an ELISA assay; for instance, the following assay that detects the late glycoprotein C of HSV-1.
Cells were fixed in the microtiter plate with 100 μL of 0.063% glutaraldehyde in phosphate buffered saline for 30 min at room temperature. The microtiter plate was then washed once with casein blocking solution and blocked with 200 μL of the same solution for one hour at room temperature. Thereafter, 100 μL of mAb C11 recognizing the glycoprotein C of HSV-1 (see E. Trybala et al., Journal of General Virology, 1994, 75, 743) was added to each well for two hours at room temperature. The plate was washed three times with phosphate buffered saline containing 0.05% polyoxyethylene (20) sorbitan monooleate. The cells were incubated with 100 μL of sheep anti-mouse IgG horseradish peroxidase for one hour at room temperature in the dark.
The plate was washed three times with 200 μL of the above-noted phosphate buffer saline preparation, and then once with 0.1 M sodium citrate (pH 4.5). Thereafter, 100 μL of orthophenylenediamine dihydrochloride (OPD, Gibco, Canada Inc.) was added to each well. The plate was agitated on a microplate shaker for 30 min in the dark. Color development was monitored at 450 nm using a microplate spectrophotometer.
SAS was used to calculate % inhibition of viral replication and to generate EC50 values.

The mark [5] stands for this setting: Human betaherpesvirus 5, AD169, Hs68.

In general, IC50 refers to the concentration that gives 50% inhibition. In general, EC50 refers to the midpoint of the concentration-response curve. `Nc1nc(-c2ccc(NC(=O)CN(CC3CCCCC3)S(=O)(=O)N3CCOCC3)cc2)cs1` [Example 107]: it took 2600 nM to reach half-maximal inhibition against HSV-1 helicase-primase (IC50). Moreover, the EC50 with HCMV (strain AD169) [1] (setting [5]) stood at 1100 nM; with HCMV (strain AD169) [2] (setting [5]) it was 12000 nM. Also, the “Cytotoxic at this concentration” value in the series on Hs-68 cells is 12* μM.

For `Nc1nc2c(ncn2COCCO)c(=O)[nH]1` [acyclovir], the “effect on cutaneous lesions” value in series [3] and in series [4] was “no effect” throughout.

With `Nc1nc(-c2ccc(NC(=O)CN(CC3CCCCC3)C(=O)c3cccnc3)cc2)cs1` [Example 64], the IC50 against HSV-1 helicase-primase came out at 2500 nM. Besides, the EC50 in the series with HSV-1 strain F or KOS came out at 1700 nM; with HCMV (strain AD169) [1], 750 nM; with HCMV (strain AD169) [2] it was 20000 nM.

`CC(c1ccccc1)N(CC(=O)Nc1ccc(-c2csc(N)n2)cc1)C(=O)C1CCCCC1` (stereo not shown) [Example 53] showed an IC50 against HSV-1 helicase-primase of 38 nM. Further, the EC50 in the series with HSV-1 strain F or KOS was determined as 3 nM; in the series on HCMV (strain AD169) [1], 3200 nM; in the series with HCMV (strain AD169) [2], 12000 nM.

As for `CC(c1ccccc1)N(CC(=O)Nc1ccc(-c2csc(N)n2)cc1)C(=O)OC(C)(C)C` (stereo not shown) [Example 88], the IC50 at HSV-1 helicase-primase turned out to be 2400 nM. Moreover, the EC50 was 1200 nM with HSV-1 strain F or KOS and greater than 47000 nM in the series with HCMV (strain AD169) [1].

Turning to `CC(c1ccccc1)N(CC(=O)Nc1ccc(-c2csc(N)n2)cc1)C(=O)C1CCCCC1` (stereo not shown) [Example 52], on HSV-1 helicase-primase, the IC50 was found to be 87 nM. The figures for the EC50 in the series on HSV-1 strain F or KOS, with HCMV (strain AD169) [1] and with HCMV (strain AD169) [2] were 13 nM, 1300 nM and 6000 nM, respectively.

Regarding `CC(c1ccccc1)N(CC(=O)Nc1ccc(-c2csc(N)n2)cc1)C(=O)OC(C)(C)C` (stereo not shown) [Example 89], half-maximal inhibition on HSV-1 helicase-primase (IC50) required 98 nM. The EC50 in the series with HSV-1 strain F or KOS turned out to be 36 nM; with HCMV (strain AD169) [1], 900 nM; in the series on HCMV (strain AD169) [2] it was 38000 nM.
